From patent publication US20230190762A1, “STABLE VARENICLINE DOSAGE FORMS” (Handa Pharma, Inc., priority 2021, published 2023)
Blank lines part the entries; values can stand above or below the substance they belong to.

What was measured:
[1] = Particle size, Mastersizer 3000 laser particle size analyzer, wet method; format: physicochemical
Description: The particle size of five representative lots of varenicline tartrate was determined and the results are as follows:
Mastersizer 3000 Laser Particle Size Analyzer and Electronic Analytical Balance
3.3.1 Preparation N-hexane solution of 0.1% span 85.
3.3.2 Weigh about 0.04 g sample and add into 5 mL dispersant, and ultrasonic for 10 min.
3.4.1 Cleaning instrument.
3.4.2 The above parameters are set,
3.4.3 Reconfirm the inspection parameters.
3.4.4 Background checks are required.
3.4.5 Samples tested and each for 3 times.

[2] = Nitrosamine test for API and finish product, UPLC-MS/MS; format: physicochemical; settings: for API nitrosamine level (Nitro-P08) (based on varenicline base): initial level of API lot
Description: 4. Nitrosamine Test Method for API and Finish Product
UPLC-MS/MS, Thermo scientific; Orbitrap Exploris 120
4.2. Solution Preparations
4.2.2 Mobile phase A: Formic acid: Purified Water (0.1:100), transferred 500 mL purified water to 500 mL analysis bottle, then added 500 μL formic acid and well mixed. Ultrasonic Degassing for 5 min.
4.2.3 Mobile phase B: Formic acid: Methanol (0.1:100), transferred 500 mL methanol to 500 mL analysis bottle, then added 500 μL formic acid and well mixed. Ultrasonic degassing for 5 min.
4.2.4 Reference stock solution I: Weight about 2.0 mg of 8-nitroso-7,8,9,10-tetrahydro-6H-6,10-methanoazepino[4,5-g]quinoxaline (Nitro-P08) into a 100 mL volumetric flask. Dissolve with methanol and dilute to volume and well mixed (about 20 μg/mL of Nitro-P08).
4.2.5 Reference stock solution II: Accurately pipet 5.0 mL of reference stock solution I into a 200-mL volumetric flask, dilute with methanol to volume and well mixed (about 500 ng/mL of Nitro-P08).
4.2.6 Reference stock solution III: Accurately pipet 5.0 mL of reference stock solution II into a 50-mL volumetric flask, dilute with methanol to volume and well mixed (about 50 ng/mL of Nitro-P08).
4.2.7 Reference solution: Accurately pipet 1.0 mL of reference stock solution III into a 50-mL volumetric flask, dilute with methanol to volume and well mixed.
Weighted about 25 mg of sample into a 50 mL volumetric flask. Diluted to volume with Diluent and well mixed. Prepared 2 duplication in parallel.
4.2.8.2 for Finish Product
Grind 10 tablets for 1 mg strength or 20 tablets for 0.5 mg strength, accurately weigh and transfer about 0.61 g of powder (equivalent to about 5 mg of Varenicline Tartrate API) into a 50 mL stoppered test tube, add 10 mL of methanol, vortex for 1 min and treat with ultrasound for 20 min. Place it still for 10 min, take an appropriate amount of solution for centrifugation (10000 rpm, 10 min), and then take the supernatant as the test solution. Prepare in duplicates. (Note: Grind the tablets and weigh right before the test sample solution preparation.)

[3] = particle size of varenicline tartrate lot, listed as 202012001
[4] = particle size of varenicline tartrate lot, listed as 202012002
[5] = API lot of compatibility study, 80 mesh
[6] = particle size of varenicline tartrate lot
[7] = particle size of varenicline tartrate lot, listed as 202010004

- D10 [1, 3]: 1.547 μm
- D50 [1, 3]: 4.088 μm
- D90 [1, 3]: 8.554 μm
Substance: Varenicline Tartrate [Lot 202012001]

- API nitrosamine level (Nitro-P08) (based on varenicline base) ([2]; listed as 6B): 1.8 ppm
- D10 [1, 4]: 2.269 μm
- D50 [1, 4]: 5.708 μm
- D90 [1, 4]: 11.288 μm
Substance: Varenicline Tartrate [Lot 202012002]

- D10 [1, 5]: 1.1 µm
- D50 [1, 5]: 3.3 µm
- D90 [1, 5]: 11 µm
Substance: Varenicline Tartrate [Lot 201702001]

- API nitrosamine level (Nitro-P08) (based on varenicline base) [2]: 7.35 ppm
Substance: Varenicline Tartrate [Lot 6A]

- Nitroso impurity [drawing 4] in bulk drug substance (API) ([2]; initial): 1.6 ppm
- Nitroso impurity [drawing 5] in bulk drug substance (API) ([2]; initial): <LOQ (0.0289 ppm)
Substance: Varenicline Tartrate [Lot 202101002]

- Nitroso impurity [drawing 4] in bulk drug substance (API) ([2]; <30° C., >[…]): 18.3 ppm
- Nitroso impurity [drawing 5] in bulk drug substance (API) ([2]; <30° C., >[…]): <LOQ (0.0289 ppm)
- D10 [1, 6]: 0.878 μm
- D50 [1, 6]: 2.630 μm
- D90 [1, 6]: 32.700 μm
Substance: Varenicline Tartrate [Lot 201811001]

- D10 [1, 7]: 2.339 μm
- D50 [1, 7]: 6.354 μm
- D90 [1, 7]: 11.802 μm
Substance: Varenicline Tartrate [Lot 202010004]

- Nitroso impurity [drawing 4] in bulk drug substance (API) ([2]; <30° C., >[…]): 7.1 ppm
- Nitroso impurity [drawing 5] in bulk drug substance (API) ([2]; <30° C., >[…]): <LOQ (0.0289 ppm)
- D10 [1, 6]: 0.858 μm
- D50 [1, 6]: 2.600 μm
- D90 [1, 6]: 9.660 μm
Substance: Varenicline Tartrate [Lot 201810001]
